“And” between values parts separate entries of the source, which are not always exact repeats. Equal values may be shown once.
System: mouse Mfsd2a
Test: Cell-based free fatty acid transport/uptake in Mfsd2a expressing HEK293 cells (mass spectrometry, TLC; Table 1)
Settings: mock HEK293 cells, 100 uM fatty acid/BSA overnight
Summary of the method: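 HEK293 cells expressing mouse Mfsd2a, or mock controls, were incubated overnight with 100 μM BSA-complexed fatty acids. Lipids were extracted in hexane:isopropanol (3:2) and phospholipid species quantified by HPLC-MS/MS against spiked internal standards. For TLC, cells received 100 μM [^14C]-oleate overnight, and phospholipids and neutral lipids were resolved.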

CCCCCCCCCCCCCCCC(=O)O [Palmitic acid]
% DHA in PC + lysoPC: 0.04025% and 0.03837% and 0.03939%
% DHA in PE + lysoPE: 10.87% and 12.13% and 11.44%
% DHA in PI and lysoPI: 0.01445% and 0.01615% and 0.01441%
% DHA in PS: 0.1091% and 0.1184% and 0.1391%
LPI16:0 in total phospholipid: 0.004053 mol percent and 0.002611 mol percent and 0.002621 mol percent
LPI18:0 in total phospholipid: 0.0326 mol percent and 0.02611 mol percent and 0.03227 mol percent
LPI20:4 in total phospholipid: 0.002114 mol percent and 0.002121 mol percent and 0.002948 mol percent
LPI22:6 in total phospholipid: 0.009339 mol percent and 0.008648 mol percent and 0.007698 mol percent
Lyso PE16:0p in total phospholipid: 2.649 mol percent and 2.594 mol percent and 2.175 mol percent
Lyso PE18:0p in total phospholipid: 0.4161 mol percent and 0.4127 mol percent and 0.4189 mol percent
Lyso PE18:1p in total phospholipid: 0.2081 mol percent and 0.1327 mol percent and 0.1216 mol percent
Lyso PE20:0p in total phospholipid: 0.1803 mol percent and 0.2801 mol percent and 0.1892 mol percent
LysoPC16:0e in total phospholipid: 0.003391 mol percent and 0.004221 mol percent and 0.003565 mol percent
LysoPC16:0 in total phospholipid: 0.02383 mol percent and 0.02127 mol percent and 0.02008 mol percent
LysoPC16:1 in total phospholipid: 0.006406 mol percent and 0.00591 mol percent and 0.006781 mol percent
LysoPC18:0e in total phospholipid: 0.002449 mol percent and 0.002111 mol percent and 0.001826 mol percent
LysoPC18:0 in total phospholipid: 0.0065 mol percent and 0.007261 mol percent and 0.008694 mol percent
LysoPC18:1 in total phospholipid: 0.01564 mol percent and 0.01503 mol percent and 0.01617 mol percent
LysoPC18:2 in total phospholipid: 0.00179 mol percent and 0.001266 mol percent and 0.001826 mol percent
LysoPC20:4 in total phospholipid: 0.000565 mol percent and 0.000507 mol percent and 0.000435 mol percent
LysoPC22:5 in total phospholipid: 0.000565 mol percent and 0.000507 mol percent and 0.000609 mol percent
LysoPE16:1 in total phospholipid: 0.1387 mol percent and 0.1179 mol percent and 0.1351 mol percent
LysoPE18:0 in total phospholipid: 0.1248 mol percent and 0.1327 mol percent and 0.06756 mol percent
LysoPE18:1 in total phospholipid: 0.06936 mol percent and 0.1032 mol percent and 0.1081 mol percent
PC32:0e in total phospholipid: 1.801 mol percent and 1.766 mol percent and 1.854 mol percent
PC32:0 in total phospholipid: 2.545 mol percent and 2.525 mol percent and 2.567 mol percent
PC32:1e in total phospholipid: 2.44 mol percent and 2.388 mol percent and 2.446 mol percent
PC32:1 in total phospholipid: 9.659 mol percent and 9.461 mol percent and 9.558 mol percent
PC32:2 in total phospholipid: 1.526 mol percent and 1.443 mol percent and 1.528 mol percent
PC34:1e in total phospholipid: 4.963 mol percent and 4.847 mol percent and 4.905 mol percent
PC34:1 in total phospholipid: 19.9344 mol percent and 19.96 mol percent and 20.13 mol percent
PC34:2e in total phospholipid: 1.578 mol percent and 1.538 mol percent and 1.559 mol percent
PC34:2 in total phospholipid: 6.328 mol percent and 6.182 mol percent and 6.318 mol percent
PC34:3e in total phospholipid: 0.2382 mol percent and 0.2269 mol percent and 0.2367 mol percent
PC34:3 in total phospholipid: 0.6391 mol percent and 0.6013 mol percent and 0.6247 mol percent
PC36:1e in total phospholipid: 1.472 mol percent and 1.429 mol percent and 1.48 mol percent
PC36:1 in total phospholipid: 2.714 mol percent and 2.676 mol percent and 2.731 mol percent
PC36:2e in total phospholipid: 1.667 mol percent and 1.629 mol percent and 1.643 mol percent
PC36:2 in total phospholipid: 5.976 mol percent and 5.824 mol percent and 5.922 mol percent
PC36:3e in total phospholipid: 0.8048 mol percent and 0.7841 mol percent and 0.7962 mol percent
PC36:3 in total phospholipid: 1.196 mol percent and 1.137 mol percent and 1.173 mol percent
PC36:4e in total phospholipid: 0.4288 mol percent and 0.4113 mol percent and 0.4345 mol percent
PC36:4 in total phospholipid: 0.338 mol percent and 0.3342 mol percent and 0.3346 mol percent
PC36:5e in total phospholipid: 0.345 mol percent and 0.3295 mol percent and 0.3467 mol percent
PC36:5 in total phospholipid: 0.06048 mol percent and 0.05513 mol percent and 0.06303 mol percent
PC36:6 in total phospholipid: 0.04691 mol percent and 0.05294 mol percent and 0.05486 mol percent
PC38:1e in total phospholipid: 0.3684 mol percent and 0.3499 mol percent and 0.3643 mol percent
PC38:3e in total phospholipid: 0.4177 mol percent and 0.3847 mol percent and 0.3977 mol percent
PC38:3 in total phospholipid: 0.5512 mol percent and 0.5341 mol percent and 0.5477 mol percent
PC38:4e in total phospholipid: 0.4224 mol percent and 0.3985 mol percent and 0.4045 mol percent
PC38:4 in total phospholipid: 0.4716 mol percent and 0.4393 mol percent and 0.4567 mol percent
PC38:5e in total phospholipid: 0.3578 mol percent and 0.3449 mol percent and 0.3552 mol percent
PC38:5 in total phospholipid: 0.2477 mol percent and 0.2424 mol percent and 0.2561 mol percent
PC38:6 in total phospholipid: 0.174 mol percent and 0.1785 mol percent and 0.1847 mol percent
PC38:7 in total phospholipid: 0.1181 mol percent and 0.1149 mol percent and 0.1218 mol percent
PC40:1e in total phospholipid: 0.1903 mol percent and 0.1874 mol percent and 0.1969 mol percent
PC40:2e in total phospholipid: 0.2001 mol percent and 0.2004 mol percent and 0.2061 mol percent
PC40:3e in total phospholipid: 0.1401 mol percent and 0.1387 mol percent and 0.1449 mol percent
PC40:4e in total phospholipid: 0.1234 mol percent and 0.1193 mol percent and 0.1297 mol percent
PC40:5e in total phospholipid: 0.1139 mol percent and 0.1153 mol percent and 0.1197 mol percent
PC40:5 in total phospholipid: 0.09044 mol percent and 0.0835 mol percent and 0.08903 mol percent
PC40:6 in total phospholipid: 0.1315 mol percent and 0.1248 mol percent and 0.1282 mol percent
PC40:7 in total phospholipid: 0.1778 mol percent and 0.1711 mol percent and 0.1768 mol percent
PE32:1 in total phospholipid: 0.3976 mol percent and 0.2948 mol percent and 0.3603 mol percent
PE32:2 in total phospholipid: 0.111 mol percent and 0.1474 mol percent and 0.08107 mol percent
PE34:0 in total phospholipid: 0.1665 mol percent and 0.1867 mol percent and 0.1531 mol percent
PE34:1 in total phospholipid: 1.137 mol percent and 1.327 mol percent and 1.144 mol percent
PE34:2 in total phospholipid: 0.7398 mol percent and 0.9433 mol percent and 0.7927 mol percent
PE34p:1 in total phospholipid: 0.971 mol percent and 1.042 mol percent and 0.8107 mol percent
PE34p:2 in total phospholipid: 0.2589 mol percent and 0.2653 mol percent and 0.2702 mol percent
PE36:1 in total phospholipid: 1.322 mol percent and 1.425 mol percent and 1.18 mol percent
PE36:2 in total phospholipid: 1.822 mol percent and 1.936 mol percent and 1.702 mol percent
PE36:3 in total phospholipid: 0.4809 mol percent and 0.3636 mol percent and 0.4143 mol percent
PE36:4 in total phospholipid: 0.2219 mol percent and 0.2555 mol percent and 0.1711 mol percent
PE36p:1 in total phospholipid: 0.4994 mol percent and 0.3931 mol percent and 0.3603 mol percent
PE36p:2 in total phospholipid: 0.4531 mol percent and 0.5896 mol percent and 0.6485 mol percent
PE36p:3 in total phospholipid: 0.7305 mol percent and 0.7272 mol percent and 0.9548 mol percent
PE36p:4 in total phospholipid: 0.9617 mol percent and 0.9433 mol percent and 0.9458 mol percent
PE38:1 in total phospholipid: 0.3791 mol percent and 0.3046 mol percent and 0.3063 mol percent
PE38:2 in total phospholipid: 0.2589 mol percent and 0.2555 mol percent and 0.3423 mol percent
PE38:3 in total phospholipid: 0.6381 mol percent and 0.7959 mol percent and 0.5495 mol percent
PE38:4 in total phospholipid: 0.8693 mol percent and 0.9237 mol percent and 0.8647 mol percent
PE38:5 in total phospholipid: 0.3791 mol percent and 0.5405 mol percent and 0.4684 mol percent
PE38:6 in total phospholipid: 0.1665 mol percent and 0.1376 mol percent and 0.1531 mol percent
PE38p:0 in total phospholipid: 0.05548 mol percent and 0.08844 mol percent and 0.09008 mol percent
PE38p:1 in total phospholipid: 0.2034 mol percent and 0.226 mol percent and 0.2432 mol percent
PE38p:2 in total phospholipid: 0.2312 mol percent and 0.2948 mol percent and 0.3423 mol percent
PE38p:3 in total phospholipid: 0.7768 mol percent and 0.8352 mol percent and 0.7656 mol percent
PE38p:4 in total phospholipid: 1.036 mol percent and 0.8549 mol percent and 0.9998 mol percent
PE38p:5 in total phospholipid: 0.6381 mol percent and 0.7272 mol percent and 0.7026 mol percent
PE38p:6 in total phospholipid: 0.971 mol percent and 1.238 mol percent and 1.108 mol percent
PE40:3 in total phospholipid: 0.1202 mol percent and 0.1179 mol percent and 0.1621 mol percent
PE40:5 in total phospholipid: 0.1572 mol percent and 0.1376 mol percent and 0.2432 mol percent
PE40:6 in total phospholipid: 0.3052 mol percent and 0.3832 mol percent and 0.2702 mol percent
PE40p:4 in total phospholipid: 0.2959 mol percent and 0.2162 mol percent and 0.2973 mol percent
PE40p:5 in total phospholipid: 0.2312 mol percent and 0.285 mol percent and 0.3153 mol percent
PE40p:6 in total phospholipid: 0.5271 mol percent and 0.7272 mol percent and 0.6485 mol percent
PE42p:4 in total phospholipid: 0.07398 mol percent and 0.05896 mol percent and 0.08107 mol percent
PE42p:6 in total phospholipid: 0.1572 mol percent and 0.167 mol percent and 0.1441 mol percent
PE42p:7 in total phospholipid: 0.1942 mol percent and 0.1277 mol percent and 0.1621 mol percent
PI 32:1 in total phospholipid: 0.01674 mol percent and 0.0186 mol percent and 0.01785 mol percent
PI 32:2 in total phospholipid: 0.001586 mol percent and 0.001469 mol percent and 0.001965 mol percent
PI 34:1 in total phospholipid: 0.1071 mol percent and 0.1227 mol percent and 0.1299 mol percent
PI 34:2 in total phospholipid: 0.06502 mol percent and 0.06038 mol percent and 0.07305 mol percent
PI 36:1 in total phospholipid: 0.1544 mol percent and 0.1643 mol percent and 0.1769 mol percent
PI 36:2 in total phospholipid: 0.3593 mol percent and 0.3719 mol percent and 0.3898 mol percent
PI 36:3 in total phospholipid: 0.1695 mol percent and 0.1663 mol percent and 0.1785 mol percent
PI 36:4 in total phospholipid: 0.04176 mol percent and 0.03965 mol percent and 0.0416 mol percent
PI 38:2 in total phospholipid: 0.3441 mol percent and 0.3474 mol percent and 0.3631 mol percent
PI 38:3 in total phospholipid: 0.9296 mol percent and 0.9911 mol percent and 1.026 mol percent
PI 38:4 in total phospholipid: 0.3635 mol percent and 0.3967 mol percent and 0.3998 mol percent
PI 38:5 in total phospholipid: 0.05392 mol percent and 0.0483 mol percent and 0.04815 mol percent
PI 38:6 in total phospholipid: 0.0074 mol percent and 0.009628 mol percent and 0.007698 mol percent
PI 40:3 in total phospholipid: 0.02555 mol percent and 0.02627 mol percent and 0.02801 mol percent
PI 40:4 in total phospholipid: 0.01515 mol percent and 0.01599 mol percent and 0.01196 mol percent
PI 40:5 in total phospholipid: 0.004934 mol percent and 0.004895 mol percent and 0.009172 mol percent
PI 40:6 in total phospholipid: 0.007048 mol percent and 0.006527 mol percent and 0.006715 mol percent
PS(sum) in total phospholipid: 3.034 mol percent and 2.842 mol percent and 3.239 mol percent
PS:34:1 in total phospholipid: 0.4968 mol percent and 0.4486 mol percent and 0.5434 mol percent
PS:34:2 in total phospholipid: 0.04738 mol percent and 0.04492 mol percent and 0.04867 mol percent
PS:36:1 in total phospholipid: 1.269 mol percent and 1.209 mol percent and 1.375 mol percent
PS:36:2 in total phospholipid: 0.4595 mol percent and 0.4148 mol percent and 0.4611 mol percent
PS:36:3 in total phospholipid: 0.02585 mol percent and 0.02217 mol percent and 0.0262 mol percent
PS:36:4 in total phospholipid: 0.00359 mol percent and 0.006418 mol percent and 0.006239 mol percent
PS:38:2 in total phospholipid: 0.2312 mol percent and 0.2147 mol percent and 0.2602 mol percent
PS:38:3 in total phospholipid: 0.1522 mol percent and 0.1447 mol percent and 0.1566 mol percent
PS:38:4 in total phospholipid: 0.07467 mol percent and 0.08168 mol percent and 0.07674 mol percent
PS:40:4 in total phospholipid: 0.08328 mol percent and 0.06359 mol percent and 0.073 mol percent
PS:40:5 in total phospholipid: 0.06605 mol percent and 0.06534 mol percent and 0.05865 mol percent
PS:40:6 in total phospholipid: 0.09836 mol percent and 0.1038 mol percent and 0.1248 mol percent
PS:40:7 in total phospholipid: 0.01077 mol percent and 0.01459 mol percent and 0.01435 mol percent
Total PC + lysoPC in total phospholipid: 71.06 mol percent and 69.79 mol percent and 71.05 mol percent
Total PE + lysoPE in total phospholipid: 23.19 mol percent and 24.54 mol percent and 22.75 mol percent
Total PI + lysoPI in total phospholipid: 2.715 mol percent and 2.832 mol percent and 2.956 mol percent

Reference: patent US10175256B2, “Compositions and methods utilizing lysophosphatidylcholine scaffolds” (National University Of Singapore, priority 2013, dated 2019)
